Laboratory results as given in patent US5916566A, “Use of benzoin gum to inhibit P-glycoprotein-mediated resistance of pharmaceutical compounds” (AvMax, Inc., priority 1998, dated 1999).
Like-named read-outs stand apart in the source and are kept apart here.

Test system: rat cytochrome P4503A
Conditions: for % inhibition (0.001%): oil ingredient at 0.001 wt % (Table 2); for % inhibition (0.01%): oil ingredient at 0.01 wt % (Table 2); for % inhibition (0.0001%): oil ingredient at 0.0001 wt % (Table 2)

SMILES: CC12CCC(CC1=O)C2(C)C (racemic) [Camphor-(±), 1,7,7-Trimethylbicyclo[2.2.1]heptan-2-one]
- % inhibition (0.001%): 57%
- % inhibition (0.01%): 87%

SMILES: C=CC(C)(O)CCC=C(C)C (racemic) [Linalcol-(±), 3,7-Dimethyl-1,6-octadien-3-ol]
- % inhibition (0.0001%): 41%
- % inhibition (0.001%): 72.0%
- % inhibition (0.01%): 85%

SMILES: C=C1C2CCC(C2)C1(C)C (single isomer, unassigned) [Camphene-(+), 2,2-Dimethyl-3-methylenebicyclo[2.2.1]heptane]
- % inhibition (0.0001%): -49%
- % inhibition (0.001%): 12.4%

SMILES: C=C(C)C1CC=C(C)C(O)C1 (single isomer, unassigned) [Carveol-(-), p-Mentha-6,8-dien-2-ol]
- % inhibition (0.0001%): 2%
- % inhibition (0.001%): 60%

SMILES: C/C=C/c1ccc(OC)cc1 [Anethole, trans-, 4-Propenylanisole]
- % inhibition (0.001%): 53%
- % inhibition (0.01%): 100%

SMILES: CC1(C)[C@H]2CC[C@]1(C)[C@H](O)C2 [Borneol-(IS)-endo(-), 1,7,7-Trimethylbicyclo[2.2.1]heptan-2-ol]
- % inhibition (0.0001%): 20%
- % inhibition (0.001%): 80%
- % inhibition (0.01%): 100%

SMILES: COc1cc(CNC(=O)CCCC/C=C/C(C)C)ccc1O [Capsaicin, trans-8-Methyl-N-vanillyl-6 nonenamide]
- % inhibition (0.0001%): 27%
- % inhibition (0.001%): 68%

SMILES: CC1=CCC2C(C1)C2(C)C (stereo not drawn) [Carene-3-(Δ)]
- % inhibition (0.0001%): -26%
- % inhibition (0.001%): 34%

SMILES: Cc1ccc(C(C)C)cc1O [Carvacrol, 5-isoPropyl-2-methylphenol]
- % inhibition (0.0001%): 11%
- % inhibition (0.001%): 93%
- % inhibition (0.01%): 97%

SMILES: C=C(C)[C@@H]1CC=C(C)C(=O)C1 [Carvone-(R)-(-), p-Mentha-6,8-dien-2-one]
- % inhibition (0.0001%): 27%
- % inhibition (0.001%): 69%
- % inhibition (0.01%): 100%

SMILES: C=C(C)[C@H]1CC=C(C)C(=O)C1 [Carvone-(S)-(+), p-Mentha-6,8-dien-2-one]
- % inhibition (0.0001%): 30%
- % inhibition (0.001%): 70.5%

SMILES: C=C1CC/C=C(\C)CC[C@@H]2[C@@H]1CC2(C)C [Caryophyllene, trans-(-), β Caryophyllene]
- % inhibition (0.0001%): 26%
- % inhibition (0.001%): 85%

SMILES: O=C/C=C/c1ccccc1 [Cinnamic Aldehyde, trans-, 3-Phenylpropenaldehyde]
- % inhibition (0.001%): 29.0%
- % inhibition (0.01%): 78%

SMILES: CC(C)=CCC/C(C)=C/C=O [Citral]
- % inhibition (0.0001%): 44%
- % inhibition (0.001%): 54%
- % inhibition (0.01%): 99%

SMILES: CC(C)=CCCC(C)CCO (stereo not drawn) [Citronellal-(DL)-(β), 3,7-Dimethyl-6-octen-1-ol]
- % inhibition (0.0001%): 41%
- % inhibition (0.001%): 86%
- % inhibition (0.01%): 95%

SMILES: C=CCc1ccc(OC)cc1 [Entragole, 4-Allylanisole]
- % inhibition (0.0001%): 7%
- % inhibition (0.001%): 69.2%
- % inhibition (0.01%): 100%

SMILES: CCOC(=O)/C=C/c1ccccc1 [Ethyl Cinnamate, trans-]
- % inhibition (0.0001%): -13%
- % inhibition (0.001%): -16%

SMILES: CCOc1cc(C=O)ccc1O [Ethyl Vanillin, 3-Ethoxy-4-hydroxybenzoledhyde]
- % inhibition (0.01%): 58%

SMILES: CC12CCC(CC1)C(C)(C)O2 [Eucatyptol, 1,8-Cincole]
- % inhibition (0.0001%): 38%
- % inhibition (0.001%): 64%
- % inhibition (0.01%): 88%

SMILES: C=CCc1ccc(O)c(OC)c1 [Eugenol, 4-Allyl-2-methoxyphenol]
- % inhibition (0.0001%): 9.8%
- % inhibition (0.001%): 66%
- % inhibition (0.01%): 100%

SMILES: CC1(C)C(=O)[C@]2(C)CC[C@H]1C2 [Fenchone-(IR)-(-), 1,3,3-Trimethylbicyclo[2.2.1]heptan-2-one]
- % inhibition (0.0001%): 14%
- % inhibition (0.001%): 38%

SMILES: CC(=O)OC/C=C(\C)CCC=C(C)C [Geranyl Acetate, trans-3,7-Dimethyl-2,,6-octadien-1-yl acetate]
- % inhibition (0.001%): 51.5%
- % inhibition (0.01%): 73%

SMILES: CC(=O)N1CCN(c2ccc(OCC3COC(Cn4ccnc4)(c4ccc(Cl)cc4Cl)O3)cc2)CC1 (stereo not drawn) [Ketoconazole, reference compound]
- % inhibition (reference compound at 0.000001 % (Table 3)): 8%
- % inhibition (reference compound at 0.000005 % (Table 3)): 20%
- % inhibition (reference compound at 0.00001 % (Table 3)): 42%
- % inhibition (reference compound at 0.00005 % (Table 3)): 100%

SMILES: C=C(C)[C@@H]1CC=C(C)CC1 [Limonene-(S)-(-), p-Mentha-1,8-diene]
- % inhibition (0.001%): 30%
- % inhibition (0.01%): 82.3%

SMILES: C=CC(C)(CCC=C(C)C)OC(C)=O (stereo not drawn) [Linalyl Acetate, 3,7-Dimethyl-1,6-octadien-3-yl acetate]
- % inhibition (0.001%): 55.8%
- % inhibition (0.01%): 100%

SMILES: COC(=O)c1ccccc1N [Methyl Anthranilate, Methyl 2-aminobenzoate]
- % inhibition (0.0001%): -7%
- % inhibition (0.001%): 23%

SMILES: COC(=O)c1ccccc1O [Methyl Salicylate, Methyl-2-hydroxybenzoate]
- % inhibition (0.001%): 12%
- % inhibition (0.01%): 86%

SMILES: C=CC(=C)CCC=C(C)C [Myrcene-β, 7-Methyl-3-methylene-1,6-octadiene]
- % inhibition (0.0001%): 0%
- % inhibition (0.001%): 13%

SMILES: C=C1CC[C@H]2C[C@@H]1C2(C)C [Pinene-(IS)-(-)-β, 6,6-Dimethyl-2-mehylenebicyclo[3.1.1]heptane]
- % inhibition (0.0001%): -10%
- % inhibition (0.001%): 60%
- % inhibition (0.01%): 88%

SMILES: CC(C)=C1CC[C@@H](C)CC1=O [Pulegone-(R)-(+), p-Menth-4-(8)-en-3-one]
- % inhibition (0.0001%): -17%
- % inhibition (0.001%): 31%

SMILES: CC1=CCC(C(C)(C)O)CC1 (stereo not drawn) [Terpincol-α, p-Menth-1-en-8-ol]
- % inhibition (0.0001%): 13.4%
- % inhibition (0.001%): 86%
- % inhibition (0.01%): 100%

SMILES: CC1=CCC(O)(C(C)C)CC1 (stereo not drawn) [Terpinen-4-ol, p-Menth-1-en-4-ol]
- % inhibition (0.0001%): 3.81%
- % inhibition (0.001%): 80%
- % inhibition (0.01%): 100%

SMILES: CC1=CC=C(C(C)C)CC1 [Terpinene-α, p-Mentha-1,3-diene]
- % inhibition (0.0001%): -6%
- % inhibition (0.001%): 28%

SMILES: Cc1ccc(C(C)C)c(O)c1 [Thymol, 2-isoPropyl-5-methylphenol]
- % inhibition (0.001%): 56%
- % inhibition (0.01%): 100%
